In brackets after ≈: the same amount, converted by molar mass.
How the values were obtained:
in vitro [1] = conditions: rat, liver microsomes
in vitro [2] = conditions: human, plasma
in vivo [3] = conditions: Sprague-Dawley, rat, iv, 1 mg/kg
in vivo [4] = conditions: Sprague-Dawley, rat
in vitro [5] = conditions: mouse, plasma
physchem [6] = conditions: PBS buffer, pH 7.4
in vitro [7] = conditions: dog, MDCK
in vivo [8] = conditions: Sprague-Dawley, rat, plasma, iv, 1 mg/kg
in vitro [9] = conditions: dog, MDCK; remark: listed apart in the source
in vitro [10] = conditions: rat, plasma
physchem [11] = conditions: octanol/aqueous buffer, pH 7.4
in vitro [12] = conditions: mouse, liver microsomes
in vivo [13] = conditions: CD1, mouse, plasma, po, 100 mg/kg
in vivo [14] = conditions: Sprague-Dawley, rat, po, 5 mg/kg
in vivo [15] = conditions: CD1, mouse, po, 100 mg/kg
in vitro [16] = conditions: human, liver microsomes
in vivo [17] = conditions: CD1, mouse
in vivo [18] = conditions: CD1, mouse, iv, 1 mg/kg
in vivo [19] = conditions: CD1, mouse, po, 5 mg/kg
in vivo [20] = conditions: CD1, mouse, plasma, iv, 1 mg/kg
in vivo [21] = conditions: CD1, mouse, plasma, iv, 1 mg/kg; remark: listed apart in the source
in vivo [22] = conditions: CD1, mouse, plasma, po, 5 mg/kg
[23] = target: Cyclin-dependent kinase 5 (Homo sapiens) (UniProt Q00535); conditions: 180 nM
[24] = target: Ribosomal protein S6 kinase alpha-6 (Homo sapiens) (UniProt Q9UK32); conditions: 180 nM
in vitro [25] = conditions: human, liver microsomes; remark: listed apart in the source
Homo sapiens = species on record: Homo sapiens; conditions: 180 nM
[26] = target: Ribosomal protein S6 kinase alpha-3 (Homo sapiens) (UniProt P51812); conditions: 180 nM
[27] = target: Ribosomal protein S6 kinase alpha-2 (Homo sapiens) (UniProt Q15349); conditions: 180 nM
[28] = target: Tyrosine-protein kinase Lck (Homo sapiens) (UniProt P06239); conditions: 180 nM
Mus musculus [29] = species on record: Mus musculus; test: animal or person; conditions: C57BL/6, po, read-out: INH
Mus musculus [30] = species on record: Mus musculus; test: animal or person; conditions: C57BL/6, po, read-out: INH; remark: listed apart in the source
Mus musculus [31] = species on record: Mus musculus; test: animal or person; conditions: C57BL/6, po, read-out: INH; remark: listed apart in the source
Mus musculus [32] = species on record: Mus musculus; test: animal or person; conditions: C57BL/6, po, read-out: INH; remark: listed apart in the source

Sequence of Ribosomal protein S6 kinase alpha-3 (Homo sapiens) (P51812 whole entry): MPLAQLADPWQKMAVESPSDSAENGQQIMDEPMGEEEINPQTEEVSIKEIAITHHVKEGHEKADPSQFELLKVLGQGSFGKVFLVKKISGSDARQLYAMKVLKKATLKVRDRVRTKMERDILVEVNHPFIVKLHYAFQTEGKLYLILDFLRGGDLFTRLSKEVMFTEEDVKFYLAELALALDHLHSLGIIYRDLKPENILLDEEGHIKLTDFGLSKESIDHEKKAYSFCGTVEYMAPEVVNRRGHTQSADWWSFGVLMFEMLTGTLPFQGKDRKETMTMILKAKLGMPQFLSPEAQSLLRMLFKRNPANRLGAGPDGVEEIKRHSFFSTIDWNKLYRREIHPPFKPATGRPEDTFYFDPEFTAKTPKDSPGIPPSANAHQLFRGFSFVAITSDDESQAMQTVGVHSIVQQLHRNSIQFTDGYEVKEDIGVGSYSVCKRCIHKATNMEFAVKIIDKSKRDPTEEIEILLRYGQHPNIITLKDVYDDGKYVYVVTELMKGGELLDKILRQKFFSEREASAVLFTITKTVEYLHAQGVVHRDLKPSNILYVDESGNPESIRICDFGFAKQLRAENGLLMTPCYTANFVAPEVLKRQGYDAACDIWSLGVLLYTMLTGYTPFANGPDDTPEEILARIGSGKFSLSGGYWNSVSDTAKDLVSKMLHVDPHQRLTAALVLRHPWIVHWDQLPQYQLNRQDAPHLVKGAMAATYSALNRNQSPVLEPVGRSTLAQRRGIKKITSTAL
Sequence of Ribosomal protein S6 kinase alpha-2 (Homo sapiens) (Q15349 whole entry): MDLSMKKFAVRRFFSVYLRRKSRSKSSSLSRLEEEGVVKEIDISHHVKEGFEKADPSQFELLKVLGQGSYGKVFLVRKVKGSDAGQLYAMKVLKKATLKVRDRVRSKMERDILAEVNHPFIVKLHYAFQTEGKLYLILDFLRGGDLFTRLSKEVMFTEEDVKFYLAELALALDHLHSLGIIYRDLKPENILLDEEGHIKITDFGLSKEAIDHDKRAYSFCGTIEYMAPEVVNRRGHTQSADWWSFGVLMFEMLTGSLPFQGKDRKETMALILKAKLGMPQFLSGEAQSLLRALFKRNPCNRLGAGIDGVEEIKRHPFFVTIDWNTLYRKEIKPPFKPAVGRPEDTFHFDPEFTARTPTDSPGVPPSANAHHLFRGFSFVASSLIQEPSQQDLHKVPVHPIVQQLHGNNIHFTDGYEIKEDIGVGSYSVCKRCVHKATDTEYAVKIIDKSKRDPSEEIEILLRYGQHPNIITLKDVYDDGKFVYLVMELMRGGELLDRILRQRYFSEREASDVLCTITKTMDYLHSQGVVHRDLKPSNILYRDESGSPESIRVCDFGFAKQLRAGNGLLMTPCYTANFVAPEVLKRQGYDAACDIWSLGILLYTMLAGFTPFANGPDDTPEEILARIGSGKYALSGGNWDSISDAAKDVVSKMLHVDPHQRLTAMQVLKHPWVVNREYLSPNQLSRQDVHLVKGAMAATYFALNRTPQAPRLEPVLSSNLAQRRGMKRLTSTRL
Sequence of Cyclin-dependent kinase 5 (Homo sapiens) (Q00535 whole entry, looked up): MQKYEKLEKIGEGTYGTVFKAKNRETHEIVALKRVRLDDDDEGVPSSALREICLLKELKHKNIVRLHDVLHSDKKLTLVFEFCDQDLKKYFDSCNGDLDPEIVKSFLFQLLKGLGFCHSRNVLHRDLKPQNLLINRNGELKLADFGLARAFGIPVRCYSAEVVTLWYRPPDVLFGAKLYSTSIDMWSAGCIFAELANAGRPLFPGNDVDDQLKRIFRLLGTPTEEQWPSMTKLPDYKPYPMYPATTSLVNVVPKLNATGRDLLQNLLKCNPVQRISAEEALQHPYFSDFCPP
Sequence of Tyrosine-protein kinase Lck (Homo sapiens) (P06239 2-509 limits assumed): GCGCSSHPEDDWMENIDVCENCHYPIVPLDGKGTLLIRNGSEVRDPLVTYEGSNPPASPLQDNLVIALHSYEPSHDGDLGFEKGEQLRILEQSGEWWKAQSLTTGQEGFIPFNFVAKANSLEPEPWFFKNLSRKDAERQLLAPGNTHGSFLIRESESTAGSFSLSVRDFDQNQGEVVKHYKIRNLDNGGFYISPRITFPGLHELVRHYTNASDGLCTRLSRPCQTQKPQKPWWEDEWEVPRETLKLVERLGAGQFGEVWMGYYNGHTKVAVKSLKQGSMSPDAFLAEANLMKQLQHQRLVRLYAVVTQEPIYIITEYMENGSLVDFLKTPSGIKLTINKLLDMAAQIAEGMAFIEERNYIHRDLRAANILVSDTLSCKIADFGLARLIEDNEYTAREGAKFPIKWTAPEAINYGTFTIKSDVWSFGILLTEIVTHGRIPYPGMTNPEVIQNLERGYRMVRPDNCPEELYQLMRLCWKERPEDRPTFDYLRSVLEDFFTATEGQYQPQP
Sequence of Ribosomal protein S6 kinase alpha-6 (Homo sapiens) (Q9UK32 whole entry): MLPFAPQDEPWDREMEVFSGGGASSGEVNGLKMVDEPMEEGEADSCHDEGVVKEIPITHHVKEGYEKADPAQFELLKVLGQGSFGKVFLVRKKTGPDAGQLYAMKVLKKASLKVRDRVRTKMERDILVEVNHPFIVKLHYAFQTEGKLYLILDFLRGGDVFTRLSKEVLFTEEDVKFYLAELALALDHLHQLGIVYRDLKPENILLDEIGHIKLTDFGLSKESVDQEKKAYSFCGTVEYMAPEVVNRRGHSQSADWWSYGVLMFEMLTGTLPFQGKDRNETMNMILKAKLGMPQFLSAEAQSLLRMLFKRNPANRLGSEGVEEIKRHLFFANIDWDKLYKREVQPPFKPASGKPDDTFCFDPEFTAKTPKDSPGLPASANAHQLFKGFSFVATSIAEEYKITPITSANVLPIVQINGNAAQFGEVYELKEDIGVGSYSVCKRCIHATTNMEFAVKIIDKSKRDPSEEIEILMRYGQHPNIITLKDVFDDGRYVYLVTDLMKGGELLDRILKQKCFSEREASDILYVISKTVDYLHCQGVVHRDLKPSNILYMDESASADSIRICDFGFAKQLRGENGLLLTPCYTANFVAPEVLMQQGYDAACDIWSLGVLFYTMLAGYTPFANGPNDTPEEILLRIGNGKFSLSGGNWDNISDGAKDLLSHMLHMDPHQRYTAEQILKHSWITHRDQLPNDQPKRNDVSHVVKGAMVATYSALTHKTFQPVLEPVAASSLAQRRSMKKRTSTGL

Row | SMILES | CLhep predicted (in vitro [1]) [mL/min/kg] | fraction unbound (in vitro [2]) | Vd (in vivo [3]) [L/kg] | half-life (in vivo [4]) [h] | fraction unbound (in vitro [5]) | solubility (physchem [6]) [µg/mL] | efflux ratio (in vitro [7]) | clearance (in vivo [8]) [mL/min/kg] | Papp A→B (in vitro [9]) [×10⁻⁶ cm/s] | fraction unbound (in vitro [10]) | logD (physchem [11]) | CLhep predicted (in vitro [12]) [mL/min/kg] | AUC (in vivo [13]) [µM·h] | bioavailability (in vivo [14]) [%] | Cmax (in vivo [15]) [µM] | CLhep predicted (in vitro [16]) [mL/min/kg] | further results
1 | N#Cc1cc(Cl)c(C(=O)Nc2ccnc(NC(=O)[C@H]3C[C@H]3F)c2)c(Cl)c1 | 10 | 0.068 | 1 | 4.1 | 0.017 | 74 (≈ 188 µM) | 1.5 | 4.6 | 12 | 0.082 | 2.8 | 36 | 1090 | 100 | 143 | 11 | –
2 | O=C(Nc1ccnc(NC(=O)C2CC2)c1)c1c(Cl)cc(-c2nnc[nH]2)cc1Cl | – | – | – | – | – | 2 (≈ 4.79 µM) | – | – | – | – | – | – | – | – | – | – | –
3 | O=C(Nc1ccnc(NC(=O)[C@H]2C[C@H]2F)c1)c1c(Cl)cccc1Cl | 21 | 0.025 | 1 | 1.8 | 0.018 | 126 (≈ 342 µM) | 0.8 | 15 | 20 | 0.048 | 2.9 | 55 | 50 | 100 | 47 | 11 | –
4 | O=C(Nc1ccnc(NC(=O)C2CC2)c1)c1c(Cl)cccc1Cl | 16 | 0.049 | 1.1 | 1.2 | 0.044 | – | 0.4 | 21 | 30 | 0.041 | 3.4 | 64 | – | 100 | – | 7 | half-life (in vivo [17]): 0.3 h; Vd (in vivo [18]): 0.6 L/kg; bioavailability (in vivo [19]): 73%; clearance (in vivo [20]): 65 mL/min/kg; clearance (in vivo [21]): 65 mL/min/kg; AUC (in vivo [22]): 2.6 µM·h
5 | N#Cc1cc(Cl)c(C(=O)Nc2ccnc(NC(=O)C3CC3)c2)c(Cl)c1 | 12 | 0.022 | 0.8 | 4.2 | 0.032 | 64 (≈ 171 µM) | 1 | 3.1 | 15 | 0.059 | 3.2 | 38 | 818 | 86 | 119 | 8 | inhibition [23]: 61%; inhibition [24]: 80%; metabolised (in vitro [25]): < 2%; half-life (in vivo [17]): 1 h; inhibition (Homo sapiens): 68%; Vd (in vivo [18]): 0.9 L/kg; bioavailability (in vivo [19]): 100%; inhibition [26]: 73%; inhibition [27]: 80%; clearance (in vivo [21]): 13 mL/min/kg; inhibition [28]: 61%
6 | O=C(Nc1ccnc(NC(=O)[C@H]2C[C@H]2F)c1)c1c(F)cccc1Cl | 20 | 0.066 | 1.2 | 0.5 | 0.036 | 28 (≈ 79.6 µM) | 0.4 | 39 | 30 | 0.122 | – | 64 | – | 100 | – | 4 | –
7 | N#Cc1cc(F)c(C(=O)Nc2ccnc(NC(=O)[C@H]3C[C@H]3F)c2)c(Cl)c1 | 11 | 0.134 | 2.3 | 40 | 0.05 | 53 (≈ 141 µM) | 1.5 | 1 | 11 | 0.09 | 2.5 | 34 | 917 | 70 | 108 | 8 | inhibition in vivo at 30 mg/kg (Mus musculus [29]): 72%; inhibition in vivo at 100 mg/kg (Mus musculus [30]): 77%; inhibition in vivo at 70 mg/kg (Mus musculus [31]): 88%; inhibition in vivo at 10 mg/kg (Mus musculus [32]): 60%
8 | O=C(Nc1ccnc(NC(=O)C2CC2)c1)c1c(Cl)cc(-c2cn[nH]c2)cc1Cl | – | – | – | – | – | 1 (≈ 2.4 µM) | – | – | – | – | – | – | – | – | – | – | –
